Measurements: patent US20200282009A1, “METHODS OF TREATING DISEASES ASSOCIATED WITH VASCULAR SMOOTH MUSCLE CELL PROLIFERATION” (BioLineRx Ltd., priority 2017, published 2020)
[ ]: non-standard residue; d: D form. The star is where a group is joined. Benzoyl(4-F) = O=C(c1ccc(F)cc1)*; Cit = NC(=O)NCCC[C@H](N)C(=O)O

Legend:
[1] = test system: SK-N-BE(2) orthotopic xenograft tumors; assay: In-vivo orthotopic NB model (tumor growth, weight, survival); design: species or system NSG mice
Protocol: (§1) Human SK-N-BE(2) cells were orthotopically injected into the left adrenal gland of 6-8 weeks old NSG mice. A 27-gauge needle was introduced through the left adrenal fat pad and 5×10∧5 cells/20 μl PBS were inoculated to the adrenal gland. NSG mice were maintained under defined flora conditions at the Hebrew University Pathogen-Free Animal Facility. Tumor growth and volume were monitored bi-weekly by using T2-weighted MRI until tumors reached the ethical limit volume and mice were randomized to drug-treated or control mice. Mice in the treated group were subjected to 2 treatment protocols. In the first treatment protocol BL-8040 (400 μg) was injected daily, starting three days following inoculation, and was continued for 35 days. In the second treatment protocol mice were monitored for 21 days. As of day 7, mice were treated with a daily injection of BL-8040 (400 μg) for 14 consecutive days.
Magnetic resonance imaging (MRI) scans were performed on a horizontal 4.7T Biospec spectrometer (Bruker Medical) with a 3.5-cm birdcage coil. Mice were anesthetized with Isoflurane (Nicholas Piramal, India; 2% in a mixture of 30:70 O2:N2O). Tumor volume was assessed bi-weekly using T2-weighted (T2W) fast spin echo images (repetition time=2,000 ms; echo time=37 ms; in plane resolution=117 μm; slice thickness-1 mm). Tumor volume was manually assessed using Analyze-7.0 (BIR). For each subject, an exponential growth curve was fitted to the tumor volume data points (Matlab software).
Data are presented as means±SD or ±SE. Statistical comparison of means was performed by a two-tailed unpaired Student's t test. Differences with a P<0.05 were determined as statistically significant. Statistical analysis of NB tumor mice survival following early treatment was performed using the Mantel-cox test.

[2] = test system: miR-15a, miR-16-1, BCL-2, CCND1, c-myc in Shy-SY5Y cells; assay: qPCR of treated cells in-vitro; format: cell-based, human; settings: 20 μM, 24 hours
Protocol: (§2) Total RNA from various cell lines and mouse tissues was isolated using Trizol reagent (Invitrogen) according to the manufacture's protocol, followed by DNaseI treatment using the DNaseI Kit where needed (Ambion). The concentrations were measured by Nanodrop (ND spectrophotometer) and the integrity was analyzed by gel electrophoreses on 1% agarose gel.
(§3) cDNA was synthesized from 0.5-1 μg total RNA using the Quanta Biosciences qScript™ cDNA Synthesis Kit (95047-100) for mRNA analysis, and using the qScript™ microRNA cDNA Synthesis Kit (95107-100) for miRNAs analysis. Quantiative PCR (qPCR) of miRNAs and mRNA was performed using the CFX384, C1000 touch thermal cycler (Bio-Rad) and a SYBR Green PCR Kit: Quanta Cat. #84018 and #84071, respectively. The fold expression and statistical significance were calculated using the 2-ΔΔ Ct method. All experiments were performed in triplicate.

[3] = test system: miR-15a, miR-16-1, BCL-2, CCND1, c-myc in SK-N-BE(2) cells; assay: qPCR of treated cells in-vitro; format: cell-based, human; settings: 20 μM, 24 hours
Protocol: as §2, §3

Ki67, Cyclin D1, BCL-2 = assay: Immunohistochemistry of xenograft tumor sections; format: in vivo, NSG mice
Protocol: For histological analysis, tumor tissue was cut into […] sections, deparaffinized with xylene, and hydrated through graded ethanol. Endogenous peroxidase was blocked by incubation for 5 minutes in 3% H2O2. A 25-mM citrate buffer (pH 6.0) was used for antigen retrieval, cooked in a pressure cooker for 20 minutes, and left to cool for 30 minutes at room temperature. Slides were washed in Optimax (Pharmatrade) and incubated with primary Ab diluted in CAS-Block (Zymed Laboratories). For Ki67 1:100 (Thermo Scientific), for CXCR4 anti-human CXCR4 monoclonal antibody clone 12G5 1:100 (R&D), for CXCL12 monoclonal CXCL12 antibody 79018 (R&D), for BCL-2 monoclonal BCL-2 antibody clone 124 (cell marque) and for cyclinD1 monoclonal BCL-1 antibody clone sp4 (spring). Staining overnight at 4° C. For all stainings, a conjugated horseradish peroxidase secondary Ab anti mouse or anti rabbit (Envision; Dako) was used for 30 minutes and developing was done with diaminobenzidine for 5 minutes followed by counterstaining with hematoxylin. For ki67, BCL-2 and Cyclin D1, staining levels were quantified using the Image Pro Analyzer image analysis software.
as §1

CXCR4 receptor = CXCR4 receptor (Homo sapiens, UniProt P61073); settings: Peled et al. 2012; cited from earlier work
SK-N-BE(2)-CXCR4 cells = assay: Cell survival assay (PI staining, FACS); format: cell-based, human; settings: SK-N-BE(2)-CXCR4 vs native cell line; 0, 10 and 20 μM, 24 hours
Protocol: A total of 1×10^5 cells/mL were cultured in 24-well plates with […] RPMI 1640 medium supplemented with 10% FCS. 24 hours later, the medium was changed to RPMI 1640 supplemented with either 1% FCS, with BL-8040 or AMD3100 or ABT199. Then 24 hours later, the cells were harvested, washed, and stained with PI (Sigma). The number of live cells was counted and analyzed using FACS analysis.
In order to stably overexpress CXCR4, SK-N-BE(2) cells were transduced with the lentiviral bicistronic vector harboring a CXCR4 expression cassette. This was done using a three-plasmid system: pHR′-CMVCXCR4-IRES-GFP-WPRE; envelope coding plasmid VSV-G and a packaging construct CMVDR8.91 according to previously published protocol (23). For transduction of SK-N-BE(2) cells, 1 ml of viral supernatant was used, which is equivalent to an m.o.i. of ˜9.

Sequence of CXCR4 receptor (P61073 whole entry): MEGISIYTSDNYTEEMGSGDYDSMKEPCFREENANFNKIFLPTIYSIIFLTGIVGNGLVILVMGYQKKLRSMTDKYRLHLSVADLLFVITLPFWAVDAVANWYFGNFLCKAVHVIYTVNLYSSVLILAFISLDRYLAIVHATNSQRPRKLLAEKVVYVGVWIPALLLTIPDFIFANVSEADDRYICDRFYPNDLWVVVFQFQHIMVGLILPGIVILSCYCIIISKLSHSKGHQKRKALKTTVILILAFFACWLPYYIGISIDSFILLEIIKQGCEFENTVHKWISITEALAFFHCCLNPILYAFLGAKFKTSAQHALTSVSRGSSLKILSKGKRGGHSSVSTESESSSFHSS

## 4F-benzoyl-Arg-Arg-Nal-Cys-Tyr-Cit-Lys-DLys-Pro-Tyr-Arg-Cit-Cys-Arg-NH2 ({Benzoyl(4-F)}-RR[Nal]CY[Cit]K[dK]PYR[Cit]CR-NH2; not fully specified; printed as 4F-benzoyl-Arg-Arg-Nal-Cys-Tyr-Cit-Lys-DLys-Pro-Tyr-Arg-Cit-Cys-Arg-NH2; cysteine pairing not given here) [BL-8040]
[1]; 400 μg s.c. daily for 14 days from day 7, harvested day 21
  reduction in tumor weight: 3 fold
[1]; 400 μg s.c. daily for 35 days from day 3, controls 35 days
  survival of animals, average: 61 days
[1]; 400 μg s.c. daily for 35 days from day 3, exponential growth after discontinuation
  tumor growth (tumor volume, MRI): tumor growth attenuation
[2]
  BCL-2 mRNA (qPCR): reduced
  CCND1 mRNA (qPCR): reduced only in the Shy-SY5Y cells
  c-myc mRNA (qPCR): reduced significantly
  miR-15a level (qPCR): significant increase
  miR-16-1 level (qPCR): not miR-16-1
[3]
  BCL-2 mRNA (qPCR): reduced
  CCND1 mRNA (qPCR): reduced only in the Shy-SY5Y cells
  c-myc mRNA (qPCR): reduced significantly
  miR-15a level (qPCR): significant increase
  miR-16-1 level (qPCR): not miR-16-1
Ki67, Cyclin D1, BCL-2; 400 μg daily for 14 days from day 7, compared to controls
  Ki67 staining of tumor sections: reduced Ki67 staining
Ki67, Cyclin D1, BCL-2; treated vs control sections, significant
  reduction in Cyclin D1 expression, tumor sections (IHC): 56%
Ki67, Cyclin D1, BCL-2; treated vs control, staining weak, difference not significant
  reduction in BCL-2 staining, tumor sections (IHC): 36%
CXCR4 receptor
  affinity of binding to the CXCR4 receptor: high affinity
  receptor occupancy: long receptor occupancy
SK-N-BE(2)-CXCR4 cells
  sensitivity to BL-8040 treatment in-vitro (viability): increased sensitivity
